≈ marks a conversion by molar mass, not a printed value.
Columns and labels:
[1] = tested on: Escherichia coli; experiment: Antimicrobial activity against Escherichia coli 9612 using 3.7 X 10^4 CFU inoculum by agar dilution method; type: functional
[2] = tested on: Staphylococcus aureus; experiment: Antimicrobial activity against methicillin-susceptible Staphylococcus aureus ATCC 29213 using 1.5 X 10^5 CFU inoculum by agar dilution method; type: functional
[3] = tested on: Staphylococcus aureus; experiment: Antimicrobial activity against methicillin-resistant Staphylococcus aureus 9344 using 2.5 X 10^5 CFU inoculum by agar dilution method; type: functional
[4] = tested on: Staphylococcus aureus; experiment: Antimicrobial activity against methicillin-susceptible Staphylococcus aureus 15 using 2.5 X 10^5 CFU inoculum by agar dilution method; type: functional
[5] = tested on: Enterococcus faecalis; experiment: Antimicrobial activity against Enterococcus faecalis ATCC 29212 using 2.8 X 10^7 by agar dilution method; type: functional
[6] = tested on: Enterococcus faecalis; experiment: Antimicrobial activity against Enterococcus faecalis HH22 using 1.8 X 10^8 by agar dilution method; type: functional
[7] = tested on: Escherichia coli; experiment: Antimicrobial activity against Escherichia coli ATCC 25922 infected in CD-1 ICR mouse using 1 X 10^5 CFU inoculum; type: functional
[8] = tested on: Escherichia coli; experiment: Antimicrobial activity against Escherichia coli 9612 infected in CD-1 ICR mouse using 3.7 X 10^4 CFU inoculum; type: functional
[9] = tested on: Escherichia coli; experiment: Antimicrobial activity against Escherichia coli 1515 infected in CD-1 ICR mouse using 2.4 X 10^6 CFU inoculum; type: functional
[10] = tested on: Klebsiella pneumoniae; experiment: Antimicrobial activity against Klebsiella pneumoniae 935 infected in CD-1 ICR mouse using 3 X 10^5 CFU inoculum; type: functional
[11] = tested on: Klebsiella pneumoniae; experiment: Antimicrobial activity against Klebsiella pneumoniae 967 infected in CD-1 ICR mouse using 2.6 X 10^5 CFU inoculum; type: functional
[12] = tested on: Staphylococcus aureus; experiment: Antimicrobial activity against methicillin-susceptible Staphylococcus aureus ATCC 29213 infected in CD-1 ICR mouse using 1.5 X 10^5 CFU inoculum; type: functional
[13] = tested on: Staphylococcus aureus; experiment: Antimicrobial activity against methicillin-resistant Staphylococcus aureus 9344 infected in CD-1 ICR mouse using 2.5 X 10^5 CFU inoculum; type: functional
[14] = tested on: Staphylococcus aureus; experiment: Antimicrobial activity against methicillin-susceptible Staphylococcus aureus 15 infected in CD-1 ICR mouse using 2.5 X 10^5 CFU inoculum; type: functional
[15] = tested on: Enterococcus faecalis; experiment: Antimicrobial activity against Enterococcus faecalis ATCC 29212 infected in CD-1 ICR mouse using 2.8 X 10^7 inoculum; type: functional
[16] = tested on: Enterococcus faecalis; experiment: Antimicrobial activity against Enterococcus faecalis HH22 infected in CD-1 ICR mouse using 1.8 X 10^8 inoculum; type: functional
[17] = tested on: Escherichia coli; experiment: microbe, parasite or virus in culture; conditions: ATCC 25922
Description: Antimicrobial activity against Escherichia coli ATCC 25922 using 1 X 10^5 CFU inoculum by agar dilution method

[18] = tested on: Escherichia coli; experiment: microbe, parasite or virus in culture; conditions: 1515
Description: Antimicrobial activity against Escherichia coli 1515 using 2.4 X 10^6 CFU inoculum by agar dilution method

[19] = tested on: Klebsiella pneumoniae; experiment: microbe, parasite or virus in culture; conditions: 935
Description: Antimicrobial activity against Klebsiella pneumoniae 935 using 3 X 10^5 CFU inoculum by agar dilution method

[20] = tested on: Klebsiella pneumoniae; experiment: microbe, parasite or virus in culture; conditions: 967
Description: Antimicrobial activity against Klebsiella pneumoniae 967 using 2.6 X 10^5 CFU inoculum by agar dilution method

[21] = tested on: Escherichia coli; experiment: Antimicrobial activity against Escherichia coli 9612 infected in new Zealand white rabbit with skin burn injury assessed as decrease in bacterial load in burn wound at 0.5 mg/ml after 24 hrs (reference value: 8.57 +/- 0.35 log10CFU/g); type: functional
[22] = tested on: Escherichia coli; experiment: Antimicrobial activity against Escherichia coli 9612 infected in new Zealand white rabbit with skin burn injury assessed as decrease in bacterial load in burn wound at 2 mg/ml after 24 hrs (reference value: 8.57 +/- 0.35 log10CFU/g); type: functional
[23] = tested on: Escherichia coli; experiment: Antimicrobial activity against Escherichia coli 9612 infected in CD-1 ICR mouse assessed as decrease in bacterial load in kidney at 20 mg/kg, sc after 72 hrs (reference value: 4.45 +/- 0.37 log10CFU/g); type: functional; conditions: route subcutaneous
[24] = tested on: Escherichia coli; experiment: Antimicrobial activity against Escherichia coli 9612 infected in CD-1 ICR mouse assessed as decrease in bacterial load in kidney at 12 mg/kg, sc after 72 hrs (reference value: 4.45 +/- 0.37 log10CFU/g); type: functional; conditions: route subcutaneous
[25] = tested on: Escherichia coli; experiment: Antimicrobial activity against Escherichia coli 9612 infected in CD-1 ICR mouse assessed as decrease in bacterial load in kidney at 7.2 mg/kg, sc after 72 hrs (reference value: 4.45 +/- 0.37 log10CFU/g); type: functional; conditions: route subcutaneous
[26] = tested on: Escherichia coli; experiment: Antimicrobial activity against Escherichia coli 9612 infected in CD-1 ICR mouse assessed as decrease in bacterial load in kidney at 4.32 mg/kg, sc after 72 hrs (reference value: 4.45 +/- 0.37 log10CFU/g); type: functional; conditions: route subcutaneous
[27] = tested on: Escherichia coli; experiment: Antimicrobial activity against Escherichia coli 9612 infected in CD-1 ICR mouse assessed as decrease in bacterial load in kidney at 2.59 mg/kg, sc after 72 hrs (reference value: 4.45 +/- 0.37 log10CFU/g); type: functional; conditions: route subcutaneous

Molecule	MIC [1] [µg/mL]	MIC [2] [µg/mL]	MIC [3] [µg/mL]	MIC [4] [µg/mL]	MIC [5] [µg/mL]	MIC [6] [µg/mL]	ED50 [7] [mg/kg]	ED50 [8] [mg/kg]	ED50 [9] [mg/kg]	ED50 [10] [mg/kg]	ED50 [11] [mg/kg]	ED50 [12] [mg/kg]	ED50 [13] [mg/kg]	ED50 [14] [mg/kg]	ED50 [15] [mg/kg]	ED50 [16] [mg/kg]	MIC [17] [µg/mL]	MIC [18] [µg/mL]	MIC [19] [µg/mL]	MIC [20] [µg/mL]	further results
CN[C@@H]1[C@@H](O)[C@@H](O[C@@H]2[C@@H](O)[C@H](O[C@@H]3OC(C(C)N)=CC[C@@H]3N)[C@@H](N)C[C@H]2N)OC[C@]1(C)O (stereo partly drawn) [VERDAMICIN]	4 (≈ 8.67 µM)	0.125 (≈ 0.271 µM)	0.25 (≈ 0.542 µM)	0.125 (≈ 0.271 µM)	8 (≈ 17.3 µM)	> 128	1.09	2.66	0.49	0.29	0.16	0.23	1.33	0.66	5.24	> 100	0.5 (≈ 1.08 µM)	0.5 (≈ 1.08 µM)	0.5 (≈ 1.08 µM)	0.25 (≈ 0.542 µM)	
GENTAMICIN	8	0.125	0.25	0.125	8	> 128	1.5	7.88	1.11	0.68	0.32	0.6	2.84	0.61	17.5	> 100					
CCN[C@@H]1C[C@H](N)[C@@H](O[C@@H]2OC(C(C)N)=CC[C@@H]2N)[C@H](O)[C@H]1O[C@H]1OC[C@](C)(O)[C@H](NC)[C@H]1O (stereo partly drawn) [VERTILMICIN]	0.5 (≈ 1.02 µM)	0.125 (≈ 0.255 µM)	0.25 (≈ 0.511 µM)	0.125 (≈ 0.255 µM)	8 (≈ 16.3 µM)	8 (≈ 16.3 µM)	0.82	0.67	0.63	0.29	0.18	0.25	0.99	0.7	4.35	7.11	0.5 (≈ 1.02 µM)	0.5 (≈ 1.02 µM)	0.5 (≈ 1.02 µM)	0.25 (≈ 0.511 µM)	log10CFU/g [21]: 6.33; log10CFU/g [22]: 5; log10CFU/g [23]: 2.36; log10CFU/g [24]: 3.11; log10CFU/g [25]: 3.07; log10CFU/g [26]: 3.22; log10CFU/g [27]: 3.32
CCN[C@@H]1C[C@H](N)[C@@H](O[C@H]2OC(CN)=CC[C@H]2N)[C@H](O)[C@H]1O[C@H]1OC[C@](C)(O)[C@H](NC)[C@H]1O [NETILMICIN]	0.5 (≈ 1.05 µM)	0.125 (≈ 0.263 µM)	0.25 (≈ 0.526 µM)	0.125 (≈ 0.263 µM)	8 (≈ 16.8 µM)	8 (≈ 16.8 µM)	0.77	0.63	0.46	0.33	0.17	0.26	0.88	0.49	3.44	6.56	0.5 (≈ 1.05 µM)	0.5 (≈ 1.05 µM)	0.5 (≈ 1.05 µM)	0.5 (≈ 1.05 µM)	

From ChEMBL document CHEMBL1649228, “In vivo antibacterial activity of vertilmicin, a new aminoglycoside antibiotic” (2009)
